Among the data in patent US20240366717A1 (priority 2020, published 2024) are net charge and antimicrobial activity values, retold here.

Series [1] is described as follows: Net peptide charge and isoelectric point as a function of pH. The series is classed as physicochemical. The note with it: pH 7. From the text:
The peptide may be purified. For example, the peptide may be lyophilized. […] Other peptides are within the scope of the disclosure.
Exemplary peptides having a charge of +5 to +9 include […](d)[…], […](d)[…], and […](d)[…]. In other embodiments, the purified peptide may be substantially neutral. […] Net charge may be selected by peptide design. Design of electrostatic charge in the peptide hydrogel may allow control of charge interaction with cell membrane and proteins.

For series [2], the system named is E. coli. As to the kind of experiment: Antibacterial assay of PEPXR hydrogels, E. coli. The series is classed as cell-based. Conditions: evaluated against E. coli, S. aureus and P. aeruginosa. From the text:
Thus, the peptide hydrogels described herein may generally comprise a high content of positively charged arginine (R) amino acids.

Square brackets hold non-standard residues; d marks the D form. Ends that are not written are not given here.

With VEVSVSVEV(d)PPTEVSVEVEV, in series [1], the net charge result was “net negative charge”. For “VKVRVRVRVPPTRVRVRVKV (VKVRVRVRV[dP]PTRVRVRVKV-NH2) [PEP6R]”, in series [2], the antimicrobial activity entry was “potent antimicrobial activity”.
